Patent US20240245639A1, “Dermal Application of Retinoic Acid Receptor Agonists for Amelioration of Hypertrophic Scar” (Northwestern University, priority 2023, published 2024)
Read-outs that look alike come from different tables or passages of the source.

Key:
Type in all cases: cell-based
[1] = test system: primary human foreskin fibroblasts; assay: Antagonism of fibroblast activation in presence or absence of TGF-β1 (qRT-PCR, Western blot, immunofluorescence); conditions: 10,000 nM ATRA, ± 10 ng/mL TGF-β1, 48 hours
Description: RAR Agonist all-Trans Retinoic Acid Antagonizes Myofibroblast Activation We then wished to see whether another RAR agonist could antagonize myofibroblast activation.
(§1) Cells cultured on glass coverslips were fixed in 4% paraformaldehyde for 30 minutes at room temperature. Cells were blocked in 10% normal goat serum and incubated overnight at 4° C. in solutions of the following primary antibodies: Rabbit monoclonal α-human α-SMA (1:500 dilution, catalog #192455, Cell Signaling Technology, Danvers M A) or mouse α-human COL1A1 (1:1000 dilution, catalog #M-38c, DSHB, Iowa City, IA). The following day, cells were incubated in 1:200 diluted solutions of goat-α-rabbit IgG or donkey-α-mouse IgG Alexafluor 488-conjugated secondary antibodies (A11034 or A21202, Invitrogen) containing Alexafluor 568-conjugated phalloidin (A12380, Invitrogen) for 2 hours in the dark at room temperature, before a 20 minute counterstain in 500 ng/mL DAPI. Coverslips were mounted onto slides in the dark using Fluoro Gel with DABCO (Electron Microscopy Sciences, Hatfield, PA) and imaged on an EVOS-FL imaging system (ThermoFisher).
Harvested scar tissues were incubated in 0.5M ammonium thiocyanate for 20 minutes, followed by mechanical separation of dermis and epidermis using a dissecting microscope. Isolated dermal tissues were minced with a razor blade, submerged in RIPA buffer, and homogenized in the presence of 2 mm zirconia beads using a MagNA Lyser (Roche, Basel, Switzerland). Alternatively, cell culture samples were detached from the culture surface by trypsinization, collected by centrifugation, and lysed in RIPA buffer. Protein concentrations of cell culture and tissue samples were determined using a DC protein assay (BioRad). Five micrograms of total protein were loaded onto polyacrylamide gels and subjected to SDS-PAGE before transfer to nitrocellulose membranes, blocking with 5% dry milk in TBS-T, and probing with target-specific primary antibodies overnight. Species-specific secondary antibody solutions were added to membranes, and chemiluminescent signal was developed with Amersham ECL Western blotting detection reagent using X-ray film.
Primary antibodies used were rabbit anti-α-SMA (1:1000, 19245S, Cell Signaling Technology), rabbit anti-collagen I (1:1000, ab34710, Abcam), mouse anti-collagen I (1:1000, C2456, Sigma-Aldrich), and mouse anti-GAPDH (1:5000, MA5-15738, Invitrogen). Secondary antibodies utilized were HRP goat anti-rabbit IgG(H+L) and horse anti-mouse IgG(H+L) (Vector Laboratories, Newark, CA), both used at 1:5000.

[2] = test system: primary human HTS fibroblasts; assay: Collagen I deposition in hypertrophic scar fibroblasts (Western blot, immunofluorescence); conditions: HTS fibroblasts, ATRA, data not shown
Description: (§2) Since overproduction of collagen is characteristic of fibroblasts in tissue fibrosis, including hypertrophic scar and keloid, we wished to determine whether Ch55 also affects deposition of collagen I by these fibroblasts.
as §1, with “Coverslips were mounted onto slides in the dark using Fluoro Gel with DABCO (Electron Microscopy Sciences, Hatfield, PA) and imaged on an EVOS-FL imaging system (ThermoFisher).” left out
(§3) Harvested scar tissues were incubated in 0.5M ammonium thiocyanate for 20 minutes, followed by mechanical separation of dermis and epidermis using a dissecting microscope. […] Protein concentrations of cell culture and tissue samples were determined using a DC protein assay (BioRad). […]

[3] = test system: primary human keloid fibroblasts; assay: Collagen I deposition in keloid fibroblasts (Western blot, immunofluorescence); conditions: keloid fibroblasts, ATRA, data not shown
Description: as §2
as §1, with “Coverslips were mounted onto slides in the dark using Fluoro Gel with DABCO (Electron Microscopy Sciences, Hatfield, PA) and imaged on an EVOS-FL imaging system (ThermoFisher).” left out
as §3

[4] = test system: primary human foreskin fibroblasts; assay: In vitro single-concentration screen of predicted compounds (brightfield, qRT-PCR)
Description: In order to initially test the identified drugs, we applied each drug or DMSO vehicle control at a single concentration to primary human foreskin fibroblasts in vitro for 24 hours, before harvesting and measuring relative expression of selected myofibroblast marker genes by qRT-PCR. […] None of the drugs tested appeared to affect expression of TGFB1 (the gene encoding transforming growth factor-beta 1) at the examined concentrations.
MATERIALS AND METHODS Materials Emetine dihydrochloride hydrate, homoharringtonine, Ch55 and panobinostat were acquired from Fisher Scientific (Waltham, MA). AZD-7762 was acquired from Selleck Chemicals (Houston, TX). For in vitro work, emetine dihydrochloride hydrate was dissolved in sterile H2O at 50 mM. Homoharringtonine was dissolved in DMSO at 10 mg/mL. Panobinostat was dissolved in DMSO at 425 μM. […] AZD-7762 was dissolved in DMSO at 500 μM. Recombinant human TGF-β1 (Sigma-Aldrich) was dissolved in sterile H2O at 50 µg/mL. All-trans-retinoic acid (Thermo Scientific) was dissolved in DMSO at 10 mM.

[5] = single concentration, 24 hours, vs vehicle

Q: What does the source list for `CC1=C(/C=C/C(C)=C/C=C/C(C)=C/C(=O)O)C(C)(C)CCC1` [ATRA, all-trans retinoic acid]?
A: F-actin stress fiber formation [1]: substantially decreased; collagen I protein (Western blot, immunofluorescence) [1]: substantially decreased; α-SMA protein (Western blot, immunofluorescence) [1]: substantially decreased; expression of collagen I [2]: dramatically decreased; expression of collagen I [3]: dramatically decreased

Q: How did the “downregulation of myofibroblast-associated genes” value ([4]; single concentration, 24 hours) turn out when `NC(=O)Nc1cc(-c2cccc(F)c2)sc1C(=O)N[C@H]1CCCNC1` [AZD-7762] was run?
A: The value was “neither did it appear to downregulate”.

Q: And the myofibroblast activation ([4]; single concentration, 24 hours)?
A: Its myofibroblast activation is “did not show a similar effect of fibroblast activation”.

Q: For `CC[C@H]1CN2CCc3cc(OC)c(OC)cc3[C@@H]2C[C@@H]1C[C@H]1NCCc2cc(OC)c(OC)cc21` [emetine], which “detachment of cells from the tissue culture plate” value ([4]; single concentration, 24 hours) is on record?
A: Its value is “notable detachment of cells”.

Q: And the myofibroblast activation ([4]; single concentration, 24 hours)?
A: The myofibroblast activation was “induced myofibroblast activation”.

Q: What about the “CCN2 expression (qRT-PCR)” value [4, 5] of the same compound?
A: Its value is “increased expression”.

Q: What about the “MMP1 expression (qRT-PCR)” value [4, 5] of the same compound?
A: Its value is “decreased expression”.

Q: What about the “SERPINE1 expression (qRT-PCR)” value [4, 5] of the same compound?
A: The value was “increased expression”.

Q: Which “detachment of cells from the tissue culture plate” value [4] does the source give for `COC(=O)C[C@](O)(CCCC(C)(C)O)C(=O)O[C@@H]1C(OC)=C[C@]23CCCN2CCc2cc4c(cc2[C@H]13)OCO4` [homoharringtonine] here?
A: The value was “notable detachment of cells”.
